# Source: US12655116B2, “Substituted isophthalic acid diamides” (Bayer Aktiengesellschaft, priority 2020, dated 2026)
# Tests used:
# ABUTH [1] = assay: Pre-emergence herbicidal action against ABUTH; type: in vivo, Abutilon theophrasti; details: Abutilon theophrasti, 504 h
# In short: (§1)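 Pre-emergence soil-surface spray of formulated compound (WP or EC; 600 to 800 l/ha; 0.2% wetting agent) over seeds sown in sandy loam. After 3 weeks under greenhouse conditions, damage is estimated visually in percent against untreated plants.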
# ALOMY [2] = assay: Pre-emergence herbicidal action against ALOMY; type: in vivo, Alopecurus myosuroides; details: Alopecurus myosuroides, 504 h; 80 g/ha, pre-emergence, scored visually after 3 weeks vs untreated controls (100% = plants have died, 0% = like control plants)
# In short: as §1
# AMARE [3] = assay: Pre-emergence herbicidal action against AMARE; type: in vivo, Amaranthus retroflexus; details: Amaranthus retroflexus, 504 h, scored visually after 3 weeks vs untreated controls, 100% = plants have died, 0% = like control plants
# In short: as §1
# AVEFA = assay: Pre-emergence herbicidal action against AVEFA; type: in vivo, Avena fatua; details: Avena fatua, 504 h; 80 g/ha, pre-emergence
# In short: as §1
# ECHCG [4] = assay: Pre-emergence herbicidal action against ECHCG; type: in vivo, Echinochloa crus-galli; details: Echinochloa crus-galli, 504 h, 80 g/ha
# In short: as §1
# HORMU = assay: Pre-emergence herbicidal action against HORMU; type: in vivo, Hordeum murinum; details: Hordeum murinum, 504 h; 80 g/ha, pre-emergence
# In short: as §1
# MATIN = assay: Pre-emergence herbicidal action against MATIN; type: in vivo, Matricaria inodora; details: Tripleurospermum inodorum, 504 h
# In short: as §1
# PHBPU [5] = assay: Pre-emergence herbicidal action against PHBPU; type: in vivo, Pharbitis purpurea; details: Ipomoea purpurea, 504 h, dosage 80 g/ha
# In short: as §1
# SETVI [6] = assay: Pre-emergence herbicidal action against SETVI; type: in vivo, Setaria viridis; details: Setaria viridis, 504 h
# In short: as §1
# STEME [7] = assay: Pre-emergence herbicidal action against STEME; type: in vivo, Stellaria media; details: Stellaria media, 504 h, dosage 80 g/ha
# In short: as §1
# VERPE [8] = assay: Pre-emergence herbicidal action against VERPE; type: in vivo, Veronica persica; details: Veronica persica, 504 h
# In short: as §1
# VIOTR [9] = assay: Pre-emergence herbicidal action against VIOTR; type: in vivo, Viola tricolor; details: Viola tricolor, 504 h, dosage 80 g/ha
# In short: as §1
# DIGSA [10] = assay: Pre-emergence herbicidal action against DIGSA; type: in vivo, Digitaria sanguinalis; details: Digitaria sanguinalis, 504 h
# In short: as §1
# ABUTH [11] = assay: Post-emergence herbicidal action against ABUTH; type: in vivo, Abutilon theophrasti; details: Abutilon theophrasti, 504 h, visual assessment about 3 weeks after treatment vs untreated controls
# In short: (§2)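 Greenhouse plants in sandy loam were sprayed at the one-leaf stage, 2 to 3 weeks after sowing, with WP or EC formulations as aqueous suspension or emulsion (600 to 800 l/ha water, 0.2% wetting agent). Visual damage was scored about 3 weeks later versus untreated controls, 0% = like control, 100% = dead.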
# ALOMY [12] = assay: Post-emergence herbicidal action against ALOMY; type: in vivo, Alopecurus myosuroides; details: Alopecurus myosuroides, 504 h, dosage 20 g/ha, visual assessment about 3 weeks after treatment vs untreated controls
# In short: as §2
# AMARE [13] = assay: Post-emergence herbicidal action against AMARE; type: in vivo, Amaranthus retroflexus; details: Amaranthus retroflexus, 504 h, 20 g/ha, visual assessment about 3 weeks after treatment, 100% = plants have died, 0% = like control plants
# In short: as §2
# ECHCG [14] = assay: Post-emergence herbicidal action against ECHCG; type: in vivo, Echinochloa crus-galli; details: Echinochloa crus-galli, 504 h, dosage 20 g/ha
# In short: as §2
# LOLRI = assay: Post-emergence herbicidal action against LOLRI; type: in vivo, Lolium rigidum; details: Lolium rigidum, 504 h, dosage 20 g/ha
# Procedure: Seeds of monocotyledonous and dicotyledonous weed and crop plants are laid out in sandy loam soil in wood-fiber pots, covered with soil and cultivated in a greenhouse under good growth conditions. 2 to 3 weeks after sowing, the test plants are treated at the one-leaf stage. The compounds of the invention, formulated in the form of wettable powders (WP) or as emulsion concentrates (EC), are then sprayed onto the green parts of the plants in the form of an aqueous suspension or emulsion at a water application rate equivalent to 600 to 800 l/ha, with addition of 0.2% wetting agent. After the test plants have been left to stand in the greenhouse under optimal growth conditions for about 3 weeks, the action of the preparations is assessed visually in comparison to untreated controls (herbicidal action in percent (%): 100% activity=the plants have died, 0% activity=like control plants). […] The tables below illustrate, in an illustrative manner, the post-emergence herbicidal action of the compounds of the invention, the herbicidal activity being stated in percent.
# PHBPU [15] = assay: Post-emergence herbicidal action against PHBPU; type: in vivo, Pharbitis purpurea; details: Ipomoea purpurea, 504 h, dosage 20 g/ha
# In short: as §2
# SETVI [16] = assay: Post-emergence herbicidal action against SETVI; type: in vivo, Setaria viridis; details: Setaria viridis, 504 h
# In short: as §2
# STEME [17] = assay: Post-emergence herbicidal action against STEME; type: in vivo, Stellaria media; details: Stellaria media, 504 h, 20 g/ha
# In short: as §2
# VERPE [18] = assay: Post-emergence herbicidal action against VERPE; type: in vivo, Veronica persica; details: Veronica persica, 504 h, 20 g/ha
# In short: as §2
# VIOTR [19] = assay: Post-emergence herbicidal action against VIOTR; type: in vivo, Viola tricolor; details: Viola tricolor, 504 h
# In short: as §2
# DIGSA [20] = assay: Post-emergence herbicidal action against DIGSA; type: in vivo, Digitaria sanguinalis; details: Digitaria sanguinalis, 504 h, 20 g/ha
# In short: as §2
structure (smiles),measurement,setting,value
Cn1nnnc1NC(=O)c1ccc(C(F)(F)F)c(C(=O)NC2CC2)c1Br [Example 1-209],pest or weed control at 80 g/ha,"ABUTH [1]; 80 g/ha, scored visually after 3 weeks vs untreated controls (100% = plants have died, 0% = like control plants)",100%
same,pest or weed control at 20 g/ha,"ABUTH [1]; dosage 20 g/ha, scored visually after 3 weeks vs untreated controls, 100% = plants have died, 0% = like control plants, read-out: Pre-emergence action against ABUTH (herbicidal activity in percent)",100%
same,pest or weed control at 80 g/ha,ALOMY [2],80%
same,pest or weed control at 20 g/ha,AMARE [3]; 20 g/ha,100%
same,pest or weed control at 80 g/ha,AMARE [3]; 80 g/ha,100%
same,pest or weed control at 80 g/ha,AVEFA,100%
same,pest or weed control at 80 g/ha,ECHCG [4],90%
same,pest or weed control at 80 g/ha,HORMU,80%
same,pest or weed control at 20 g/ha,MATIN; dosage 20 g/ha,80%
same,pest or weed control at 80 g/ha,MATIN; dosage 80 g/ha,100%
same,pest or weed control at 80 g/ha,PHBPU [5],80%
same,pest or weed control at 20 g/ha,SETVI [6]; dosage 20 g/ha,90%
same,pest or weed control at 80 g/ha,SETVI [6]; dosage 80 g/ha,100%
same,pest or weed control at 80 g/ha,STEME [7],90%
same,pest or weed control at 20 g/ha,VERPE [8]; dosage 20 g/ha,90%
same,pest or weed control at 80 g/ha,VERPE [8]; dosage 80 g/ha,100%
same,pest or weed control at 80 g/ha,VIOTR [9],100%
same,pest or weed control at 20 g/ha,DIGSA [10]; dosage 20 g/ha,100%
same,pest or weed control at 80 g/ha,DIGSA [10]; dosage 80 g/ha,100%
same,pest or weed control at 5 g/ha,ABUTH [11]; dosage 5 g/ha,90%
same,pest or weed control at 20 g/ha,ABUTH [11]; dosage 20 g/ha,100%
same,pest or weed control at 20 g/ha,ALOMY [12],80%
same,pest or weed control at 20 g/ha,AMARE [13],100%
same,pest or weed control at 20 g/ha,ECHCG [14],90%
same,pest or weed control at 20 g/ha,LOLRI,80%
same,pest or weed control at 20 g/ha,PHBPU [15],90%
same,pest or weed control at 5 g/ha,SETVI [16]; dosage 5 g/ha,100%
same,pest or weed control at 20 g/ha,SETVI [16]; dosage 20 g/ha,100%
same,pest or weed control at 20 g/ha,STEME [17],90%
same,pest or weed control at 20 g/ha,VERPE [18],80%
same,pest or weed control at 5 g/ha,VIOTR [19]; 5 g/ha,100%
same,pest or weed control at 20 g/ha,VIOTR [19]; 20 g/ha,100%
same,pest or weed control at 20 g/ha,DIGSA [20],90%
